Measurements reported in PMC9505973, “Sustainable Production of Biosurfactant from Agro-Industrial Oil Wastes by Bacillus subtilis and Its Potential Application as Antioxidant and ACE Inhibitor” (International Journal of Molecular Sciences, 2022).

Columns and labels:
ACE in serum = conditions: HFFD rats; cited from earlier work
Method: Biosurfactants’ inhibitory activity was analyzed in vitro as well as in vivo, using an animal model, in the work of Zouari et al.. […] Moreover, the administration of B. subtilis SPB1 lipopeptides or atorvastatin in vivo, to hypercaloric high-fat–high-fructose diet (HFFD) rats, decr ...

[1] = Ferric reducing antioxidant power (FRAP, TEAC)
Method: (§1) The surfactin antioxidant activity was measured using ABTS, DPPH and FRAP assays. Each measurement was performed in triplicate. The ABTS assay was conducted according to Re et al.. In the first instance, radical cation (ABTS^•+) solution was prepared by mixing 7 mM ABTS stock solution (Sigma-Aldrich) with 2.45 mM potassium persulfate solution (Sigma-Aldrich). The mixture was incubated in the dark at room temperature for 12–16 h. Then, the reagent absorbance was adjusted to 0.7 (±0.02) at 734 nm, using distilled water as a blank. The antioxidant activity of the biosurfactant was determined by mixing 10 μL of surfactin (1 mg/mL) with 990 μL of ABTS^•+ solution. The absorbance was measured after 5 min incubation in the dark, using the Spark multimode microplate leader (Tecan Group Ltd., Männedorf, Switzerland), at 734 nm. The standard curve was prepared for Trolox ethanol solution (Sigma-Aldrich, St. Louis, MO, USA) in the range of 0–2000 μM. The activity of surfactin was expressed as the Trolox equivalent antioxidant capacity (TEAC [µM/g]).
Finally, the FRAP assay was conducted according to Benzie et al.. The reaction, performed at pH = 3.6, involved the reduction of Fe^3+ to Fe^2+ in the presence of 2,4,6-trypyridyl-s-triazine, followed by the formation of a colored complex. […]

[2] = ABTS radical cation assay (TEAC)
Method: as §1

[3] = DPPH free radical scavenging (TEAC)
Method: as §1, with “The standard curve was prepared for Trolox ethanol solution (Sigma-Aldrich, St. Louis, MO, USA) in the range of 0–2000 μM.” left out
In addition, the antioxidant activity of surfactin, expressed as the ability to scavenge DPPH free radicals, was investigated according to Xu et al.. […] The sample was centrifuged (12000 rpm) and the absorbance was measured using the Spark multimode microplate leader (Tecan Group Ltd., Männedorf, Switzerland) at 517 nm. The antioxidant activity of surfactin was expressed as Trolox equivalent (TEAC [µM/g]). […]

[4] = system: angiotensin-converting enzyme (ACE); experiment: ACE-inhibitory activity assay; assay type: biochemical
Method: The ACE-inhibitory activity assay was performed according to Udenigwe and Aluko [56] and quantified by a regression analysis of ACE-inhibitory activity (%) versus surfactin concentration. The IC50 value, i.e., the surfactin concentration (µg/mL) that causes 50% inhibition of ACE activity, was determined. The assay was carried out in triplicate.

IC50, ACE-inhibitory activity ([4]; regression of ACE-inhibitory activity (%) versus surfactin concentration, triplicate) [µg/mL] | Compound | reduction in ACE activity (ACE in serum) [%] | TEAC, FRAP ([1]; 50 μL surfactin (1 mg/mL) + 150 μL working solution, pH 3.6, 10 min, room temperature, 593 nm, Trolox standard, triplicate) [µM/g] | antioxidant activity (FRAP), in words ([1]; surfactin 1 mg/mL) | TEAC, ABTS ([2]; 10 μL surfactin (1 mg/mL) + 990 μL ABTS•+, 5 min in the dark, 734 nm, Trolox standard 0–2000 μM, triplicate) [µM/g] | antioxidant activity (ABTS), in words ([2]; surfactin 1 mg/mL) | TEAC, DPPH ([3]; 10 μL surfactin (1 mg/mL) + 190 μL 0.1 mM DPPH in ethanol, 30 min in the dark, 517 nm, Trolox standard 0–1000 μM, triplicate) [µM/g] | antioxidant activity (DPPH), in words ([3]; surfactin 1 mg/mL) | ACE inhibition, in words [4]
– | CC(C)c1c(C(=O)Nc2ccccc2)c(-c2ccccc2)c(-c2ccc(F)cc2)n1CC[C@@H](O)C[C@@H](O)CC(=O)O [atorvastatin] | 24 | – | – | – | – | – | – | –
620 ± 40 | surfactin | – | 0.76 ± 0.096 | trace antioxidant activity | 3.77 ± 0.22 | trace antioxidant activity | 11.67 ± 0.8 | trace antioxidant activity | strong inhibitory effect against ACE activity
